Reference: patent publication US4515942A, “Antibiotics KA-6606 XII, XIII, XV, XVI and XVII” (Kowa Company, Ltd., priority 1980, dated 1985)

Tested on: Pseudomonas aeruginosa
Experiment: disc plate method (Table 1)
Assay type: cell-based
Settings: 1 mg/ml, paper disc 8 mm, read-out: Inhibition zone (diameter)
From the text: (§1) Tables 1 and 2 show the antibacterial spectra of the antibiotics KA-6606 VII to KA-6606 XVII against various bacteria, determined by the disc plate method, in comparison with the KA-6606 II substance. Each of the chemicals is used as impregnated in a paper disc having a diameter of 8 mm.

SMILES	zone of inhibition at 1000 µg/mL [mm]
CNC1C(OC)CC(N)C(OC2OC(C(C)N)CCC2N)C1O (stereo not shown) [KA-6606 VIII]	17.3

Tested on: Bacillus subtilis ATCC 6633
Experiment: disc plate method (Table 1)
Assay type: cell-based
Settings: 1 mg/ml; paper disc 8 mm; Bacillus subtilis ATCC 6633 (Table 1)
From the text: as §1

SMILES	Inhibition zone (diameter) [mm]
CNC1C(OC)CC(N)C(OC2OC(C(C)N)CCC2N)C1O (stereo not shown) [KA-6606 VIII]	26.2

Same assay, conditions: Bacillus subtilis, ATCC6633, 1 mg/ml; paper disc 8 mm; Bacillus subtilis ATCC 6633 (Table 1); read-out: Inhibition zone (diameter)

SMILES	zone of inhibition at 1000 µg/mL [mm]
CNC1C(OC)CC(N)C(OC2OC(C(C)N)CCC2N)C1O (stereo not shown) [KA-6606 VII]	17.8

Tested on: Proteus inconstans
Experiment: disc plate method (Table 1)
Assay type: cell-based
Settings: 1 mg/ml; paper disc 8 mm; Proteus inconstans (Table 1)
From the text: as §1

SMILES	Inhibition zone (diameter) [mm]
CNC1C(OC)CC(N)C(OC2OC(C(C)N)CCC2N)C1O (stereo not shown) [KA-6606 VIII]	18.9
CNC1C(OC)CC(N)C(OC2OC(C(C)N)CCC2N)C1O (stereo not shown) [KA-6606 VII]	9.0

Tested on: Staphylococcus aureus 209P
Experiment: disc plate method (Table 1)
Assay type: cell-based
Settings: 1 mg/ml, paper disc 8 mm
From the text: as §1

SMILES	Inhibition zone (diameter) [mm]
CNC1C(OC)CC(N)C(OC2OC(C(C)N)CCC2N)C1O (stereo not shown) [KA-6606 VIII]	13.5

Same assay, conditions: Staphylococcus aureus, 209P, 1 mg/ml, paper disc 8 mm, read-out: Inhibition zone (diameter)

SMILES	zone of inhibition at 1000 µg/mL [mm]
CNC1C(OC)CC(N)C(OC2OC(C(C)N)CCC2N)C1O (stereo not shown) [KA-6606 VII]	9.3

Tested on: Proteus vulgaria
Experiment: disc plate method (Table 1)
Assay type: cell-based
Settings: 1 mg/ml, paper disc 8 mm
From the text: as §1

SMILES	Inhibition zone (diameter) [mm]
CNC1C(OC)CC(N)C(OC2OC(C(C)N)CCC2N)C1O (stereo not shown) [KA-6606 VIII]	23.3

Same assay, conditions: 1 mg/ml, paper disc 8 mm, read-out: Inhibition zone (diameter)

SMILES	zone of inhibition at 1000 µg/mL [mm]
CNC1C(OC)CC(N)C(OC2OC(C(C)N)CCC2N)C1O (stereo not shown) [KA-6606 VII]	20.1

Tested on: Klebsiella pneumoniae
Experiment: disc plate method (Table 1)
Assay type: cell-based
Settings: 1 mg/ml, paper disc 8 mm
From the text: as §1

SMILES	Inhibition zone (diameter) [mm]
CNC1C(OC)CC(N)C(OC2OC(C(C)N)CCC2N)C1O (stereo not shown) [KA-6606 VIII]	18.8
CNC1C(OC)CC(N)C(OC2OC(C(C)N)CCC2N)C1O (stereo not shown) [KA-6606 VII]	9.0

Tested on: Escherichia coli NIHJ
Experiment: disc plate method (Table 1)
Assay type: cell-based
Settings: 1 mg/ml, paper disc 8 mm
From the text: as §1

SMILES	Inhibition zone (diameter) [mm]
CNC1C(OC)CC(N)C(OC2OC(C(C)N)CCC2N)C1O (stereo not shown) [KA-6606 VIII]	21.9

Same assay, conditions: Escherichia coli, 1 mg/ml, paper disc 8 mm, read-out: Inhibition zone (diameter)

SMILES	zone of inhibition at 1000 µg/mL [mm]
CNC1C(OC)CC(N)C(OC2OC(C(C)N)CCC2N)C1O (stereo not shown) [KA-6606 VII]	17.5

Tested on: Serratia marcescens
Experiment: disc plate method (Table 1)
Assay type: cell-based
Settings: 1 mg/ml, paper disc 8 mm
From the text: as §1

SMILES	Inhibition zone (diameter) [mm]
CNC1C(OC)CC(N)C(OC2OC(C(C)N)CCC2N)C1O (stereo not shown) [KA-6606 VIII]	19.7

Same assay, conditions: 1 mg/ml, paper disc 8 mm, read-out: Inhibition zone (diameter)

SMILES	zone of inhibition at 1000 µg/mL [mm]
CNC1C(OC)CC(N)C(OC2OC(C(C)N)CCC2N)C1O (stereo not shown) [KA-6606 VII]	15.1

Tested on: not listed separately
Experiment: Solubility in solvents
Assay type: physicochemical
Settings: chloroform

Solubility in solvents: chloroform	SMILES
Insoluble	CNC1C(OC)CC(N)C(OC2OC(C(C)N)CCC2N)C1O (stereo not shown) [KA-6606 VIII]
Insoluble	CNC1C(OC)CC(N)C(OC2OC(C(C)N)CCC2N)C1O (stereo not shown) [KA-6606 VII]

Same assay, conditions: ethyl acetate

Solubility in solvents: ethyl acetate	SMILES
Insoluble	CNC1C(OC)CC(N)C(OC2OC(C(C)N)CCC2N)C1O (stereo not shown) [KA-6606 VIII]
Insoluble	CNC1C(OC)CC(N)C(OC2OC(C(C)N)CCC2N)C1O (stereo not shown) [KA-6606 VII]

Same assay, conditions: methanol

Solubility in solvents: methanol	SMILES
Easily soluble	CNC1C(OC)CC(N)C(OC2OC(C(C)N)CCC2N)C1O (stereo not shown) [KA-6606 VIII]
Easily soluble	CNC1C(OC)CC(N)C(OC2OC(C(C)N)CCC2N)C1O (stereo not shown) [KA-6606 VII]

Same assay, conditions: water

Solubility in solvents: water	SMILES
Easily soluble	CNC1C(OC)CC(N)C(OC2OC(C(C)N)CCC2N)C1O (stereo not shown) [KA-6606 VIII]
Easily soluble	CNC1C(OC)CC(N)C(OC2OC(C(C)N)CCC2N)C1O (stereo not shown) [KA-6606 VII]

Tested on: not listed separately
Experiment: Stability
Assay type: physicochemical
Settings: pH range in which stable

Stability (stable at pH)	SMILES
2-10 pH	CNC1C(OC)CC(N)C(OC2OC(C(C)N)CCC2N)C1O (stereo not shown) [KA-6606 VIII]
2-10 pH	CNC1C(OC)CC(N)C(OC2OC(C(C)N)CCC2N)C1O (stereo not shown) [KA-6606 VII]
